Test results from patent publication US12364702B2, “Highly active sting protein agonist compound” (ADLAI NORTYE BIOPHARMA CO., LTD., priority 2018, dated 2025).
pEC50: −log10 of the molar value. Where two headings read alike, the source gives them in different places.

Assays:
Assay type in all cases: cell-based
STING = STING (Homo sapiens, UniProt Q86WV6); experiment: IFN-β secretion from THP1 by STING activation (hIFNβ ELISA)
How it was run: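 THP1 cells (2×10^6 cells/ml) exposed 24 h at 37° C, 5% CO2 to 8-point, 3-fold compound dilutions, 0.2% DMSO final, top dose set by solubility. Secreted IFN-β in supernatant measured by human IFNβ ELISA; EC50 from curve fitting.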

STING WT variant [1] = biological target: T1, STING WT variant (Homo sapiens, UniProt Q86WV6); experiment: SEAP reporter assay in HEK-Blue ISG KO-STING cells transfected with STING WT variant (Method 2); design: key: ratio of compound SEAP signal to 0.5% DMSO; details: 1 ng STING vector (WT variant), compound 2.5 uM, 24 h, SEAP signal vs 0.5% DMSO
T1 construct: host or cells: HEK-Blue ISG KO-STING cells (Invivogen, hkb-kostg)
Source text: (§1) Activation of STING can be determined using a SEAP reporter assay in HEK-Blue™ ISG KO-STING cells (Invivogen, cat #hkb-kostg) transfected with plasmids expressing STING variants (WT & HAQ) (referred to WO2017/175147A1). STING variants (WT & HAQ) vector were constructed based on STING-232H vector (Origene, RC208418). GFP vector (VT2069) was bought from Youbio. The detailed protocol as follows: HEK-Blue™ ISG KO-STING cells were harvest and seeding into 96 well plate and the final cell number was 0.8×10^5 cells/well. Transfections were prepared using Lipofectamine 2000 (Invitrogen, Cat #11668-027) following the manufacturer's instructions (Lipo2000/DNA=1/10), 20 ul of transfection suspension containing 1 ng (WT variant) or 0.0625 ng (HAQ variant) STING vector was added to cell culture plate and incubated at 37° C., 5% CO2 for 24 hours. After 24 hours incubation, compounds were added at proper concentration, the final DMSO concentration was 0.5%. After 24 h incubation, the supernatant was collected to detect SEAP signal using Great EscAPe SEAP chemiluminescence KIT (Clontech, cat #631738) and cells were collected to detect cell viability using CellTiter-Glo Luminescent Cell Viability Assay (Promega, cat #G7573) following the manufacturer's instructions. The data were described by the ratio of the stimulating signal of compounds to 0.5% DMSO.

STING HAQ variant [2] = biological target: T2, STING HAQ variant (Homo sapiens, UniProt Q86WV6, G230A/R293Q/R71H); experiment: SEAP reporter assay in HEK-Blue ISG KO-STING cells transfected with STING HAQ variant (Method 2); design: key: ratio of compound SEAP signal to 0.5% DMSO; details: 0.0625 ng STING vector (HAQ variant), compound 5 uM, 24 h, SEAP signal vs 0.5% DMSO
T2 construct: host or cells: HEK-Blue ISG KO-STING cells (Invivogen, hkb-kostg)
Source text: as §1

STING WT variant [3] = biological target: T1, STING WT variant; experiment: SEAP reporter assay in HEK-Blue ISG KO-STING cells transfected with STING WT variant (Method 1); details: 24 h, SEAP signal vs 0.5% DMSO
Source text: as §1, with “96 well plate, the final” for “96 well plate and the final”, “1 ng STING vector” for “1 ng (WT variant) or 0.0625 ng (HAQ variant) STING vector”, “After 24 hours' incubation, compounds” for “After 24 hours incubation, compounds”, “proper concentration, and the final” for “proper concentration, the final”

STING HAQ variant [4] = biological target: T2, STING HAQ variant; experiment: SEAP reporter assay in HEK-Blue ISG KO-STING cells transfected with STING HAQ variant (Method 1); details: 24 h, SEAP signal vs 0.5% DMSO
Source text: as §1, with “96 well plate, the final” for “96 well plate and the final”, “1 ng STING vector” for “1 ng (WT variant) or 0.0625 ng (HAQ variant) STING vector”, “After 24 hours' incubation, compounds” for “After 24 hours incubation, compounds”, “proper concentration, and the final” for “proper concentration, the final”

[5] = THP1 cells; 24 h incubation; IFN-β in supernatant; top dose set according to solubility; read-out: hIFNβ ELISA (EC50)
[6] = 1 ng STING vector, compound 2.5 uM
[7] = 1 ng STING vector, compound 5 uM

T2 sequence (Q86WV6 whole entry R71H/G230A/R293Q): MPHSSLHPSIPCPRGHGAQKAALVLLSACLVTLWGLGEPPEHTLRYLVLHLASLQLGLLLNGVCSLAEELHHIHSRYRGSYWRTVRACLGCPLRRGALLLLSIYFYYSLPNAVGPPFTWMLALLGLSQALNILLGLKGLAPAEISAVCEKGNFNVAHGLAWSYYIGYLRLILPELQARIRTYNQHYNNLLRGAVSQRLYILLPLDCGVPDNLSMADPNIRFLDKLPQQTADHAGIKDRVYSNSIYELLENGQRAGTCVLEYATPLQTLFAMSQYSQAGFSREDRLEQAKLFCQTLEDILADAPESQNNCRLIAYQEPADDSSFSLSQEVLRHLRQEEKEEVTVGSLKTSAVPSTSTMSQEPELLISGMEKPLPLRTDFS
Chain of STING (Q86WV6 whole entry): as the sequence (Q86WV6 whole entry R71H/G230A/R293Q) above, with H71R, A230G, Q293R counted along it

Row | Fold change related to DMSO control WT (STING WT variant [1]) | Fold change related to DMSO control HAQ (STING HAQ variant [2]) | pEC50 (STING; [5]) | Fold change related to DMSO control WT (STING WT variant [3]; [6]) | Fold change related to DMSO control HAQ (STING HAQ variant [4]; [7]) | Structure (SMILES) | also measured
1 | 9.80 | 9.16 | – | – | – | CCn1nc(C)cc1C(=O)Nc1nc2cc(C(N)=O)cc(OCCCNC(=O)CN3CCOCC3)c2n1CCC[C@H]1COc2cc(C#N)cc3nc(NC(=O)c4cc(C)nn4CC)n1c23 [Example 47, (S)-1-(3-(7-cyano-2-(1-ethyl-3-methyl-1H-pyrazole-5-carboxamido)-3,4-dihydro-5-oxa-1,2a-diazaacenaphthylen-3-yl)propyl)-2-(1-ethyl-3-methyl-1H-pyrazole-5-carboxamido)-7-(3-(2-morpholinoacetamido)propoxy)-1H-benzo[d]imidazole-5-carboxamide] | hIFNβ ELISA (EC50, μM) (STING; THP1 cells; 24 h incubation; IFN-β in supernatant; top dose set according to solubility): inactive
2 | 11.71 | 26.34 | 5.92 | – | – | CCn1nc(C)cc1C(=O)Nc1nc2cc(C(N)=O)cc(OCCCNC(=O)CN3CCOCC3)c2n1CCC[C@H]1COc2cc(C(N)=O)cc3nc(NC(=O)c4c(Cl)c(C)nn4CC)n1c23 [Example 55, (S)-3-(3-(5-carbamoyl-2-(1-ethyl-3-methyl-1H-pyrazole-5-carboxamido)-7-(3-(2-morpholinoacetamido)propoxy)-1H-benzo[d]imidazol-1-yl)propyl)-2-(4-chloro-1-ethyl-3-methyl-1H-pyrazole-5-carboxamido)-3,4-dihydro-5-oxa-1,2a-diazaacenaphthylene-7-carboxamide] | –
3 | 7.15 | 19.38 | 5.06 | – | – | CCn1nc(C)cc1C(=O)Nc1nc2cc(C(N)=O)cc(OCCCNC(=O)CN3CC(COC)C3)c2n1CCC[C@H]1COc2cc(C(N)=O)cc3nc(NC(=O)c4cc(C)nn4CC)n1c23 [Example 41, (S)-3-(3-(5-Carbamoyl-2-(1-ethyl-3-methyl-1H-pyrazole-5-carboxamido)-7-(3-(2-(3-(methoxymethyl)azetidin-1-yl)acetamido)propoxy)-1H-benzo[d]imidazol-1-yl)propyl)-2-(1-ethyl-3-methyl-1H-pyrazole-5-carboxamido)-3,4-dihydro-5-oxa-1,2a-diazaacenaphthylene-7-carboxamide] | –
4 | – | – | 4.94 | 2.63 | 41.58 | CCn1nc(C)cc1C(=O)Nc1nc2cc(C(N)=O)cc(OCCCNC(=O)CN(C)C)c2n1CCC[C@H]1COc2cc(C(N)=O)cc3nc(NC(=O)c4cc(C)nn4CC)n1c23 [Example 20, (S)-3-(3-(5-carbamoyl-7-(3-(2-(dimethylamino)acetamido)propoxy)-2-(1-ethyl-3-methyl-1H-pyrazole-5-carboxamido)-1H-benzo[d]imidazol-1-yl)propyl)-2-(1-ethyl-3-methyl-1H-pyrazole-5-carboxamido)-3,4-dihydro-5-oxa-1,2a-diazaacenaphthylene-7-carboxamide] | –
5 | – | – | 5.04 | 1.51 | 6.51 | CCn1nc(C)cc1C(=O)Nc1nc2cc(C(N)=O)cc(OCCCNC(=O)CN3CCNCC3)c2n1CCC[C@H]1COc2cc(C(N)=O)cc3nc(NC(=O)c4cc(C)nn4CC)n1c23 [Example 34, (S)-3-(3-(6-carbamoyl-2-(1-ethyl-3-methyl-1H-pyrazole-5-carboxamido)-4-(3-(2-(piperazin-1-yl)acetamido)propoxy)-1H-benzo[d]imidazol-1-yl)propyl)-2-(1-ethyl-3-methyl-1H-pyrazole-5-carboxamido)-3,4-dihydro-5-oxa-1,2a-diazaacenaphthylene-7-carboxamide] | –

The next lines start with the molecule.

Row | Structure (SMILES) | Fold change related to DMSO control WT (STING WT variant [1]) | Fold change related to DMSO control HAQ (STING HAQ variant [2]) | pEC50 (STING; [5]) | Fold change related to DMSO control WT (STING WT variant [3]; [6]) | Fold change related to DMSO control HAQ (STING HAQ variant [4]; [7]) | also measured
6 | CCn1nc(C)cc1C(=O)Nc1nc2cc(C(N)=O)cc(OCCCN)c2n1CCC[C@H]1COc2cc(C(N)=O)cc3nc(NC(=O)c4c(F)c(C)nn4CC)n1c23.Cl [Example 51, (S)-3-(3-(7-(3-aminopropoxy)-5-carbamoyl-2-(1-ethyl-3-methyl-1H-pyrazole-5-carboxamido)-1H-benzo[d]imidazol-1-yl)propyl)-2-(1-ethyl-4-fluoro-3-methyl-1H-pyrazole-5-carboxamido)-3,4-dihydro-5-oxa-1,2a-diazaacenaphthylene-7-carboxamide hydrochloride] | 9.66 | 11.97 | – | – | – | pEC50 (STING; read-out: hIFNβ ELISA (EC50); THP1 cells; 24 h incubation; IFN-β in supernatant; top dose set according to solubility): < 4.30
7 | CCn1nc(C)cc1C(=O)Nc1nc2cc(C(N)=O)cc(OCCCN=C(N(C)C)N(C)C)c2n1CCC[C@H]1COc2cc(C(N)=O)cc3nc(NC(=O)c4cc(C)nn4CC)n1c23 [Example 56, (S)-3-(3-(7-(3-((bis(dimethylamino)methylene)amino)propoxy)-5-carbamoyl-2-(1-ethyl-3-methyl-1H-pyrazole-5-carboxamido)-1H-benzo[d]imidazol-1-yl)propyl)-2-(1-ethyl-3-methyl-1H-pyrazole-5-carboxamido)-3,4-dihydro-5-oxa-1,2a-diazaacenaphthylene-7-carboxamide] | 6.76 | 10.61 | 4.76 | – | – | –
8 | CCn1nc(C)cc1C(=O)Nc1nc2cc(C(N)=O)cc(OCCCO)c2n1CCC[C@H]1COc2cc(C(N)=O)cc3nc(NC(=O)c4cc(C)nn4CC)n1c23 [Example 6, (S)-3-(3-(5-carbamoyl-2-(1-ethyl-3-methyl-1H-pyrazole-5-carboxamido)-7-(3-hydroxypropoxy)-1H-benzo[d]imidazol-1-yl)propyl)-2-(1-ethyl-3-methyl-1H-pyrazole-5-carboxamido)-3,4-dihydro-5-oxa-1,2a-diazaacenaphthylene-7-carboxamide] | – | – | 5.32 | – | – | Fold change related to DMSO control WT (STING WT variant [3]; compound 57.9 uM): 1.71; Fold change related to DMSO control HAQ (STING HAQ variant [4]; compound 57.9 uM): 32.88
9 | CCn1nc(C)cc1C(=O)Nc1nc2cc(C(N)=O)cc3c2n1[C@@H](CCCn1c(NC(=O)c2cc(C)nn2CCF)nc2cc(C(N)=O)cc(OCCCOC)c21)CO3 [Example 12, (S)-3-(3-(5-carbamoyl-2-(1-(2-fluoroethyl)-3-methyl-1H-pyrazole-5-carboxamido)-7-(3-methoxypropoxy)-1H-benzo[d]imidazol-1-yl)propyl)-2-(1-ethyl-3-methyl-1H-pyrazole-5-carboxamido)-3,4-dihydro-5-oxa-1,2a-diazaacenaphthylene-7-carboxamide] | – | – | < 5.04 | 1.89 | 26.28 | –
10 | CCn1nc(C)cc1C(=O)Nc1nc2cc(C(N)=O)cc(OCCCCNC)c2n1CCC[C@H]1COc2cc(C(N)=O)cc3nc(NC(=O)c4cc(C)nn4CC)n1c23 [Example 23, (S)-3-(3-(5-carbamoyl-2-(1-ethyl-3-methyl-1H-pyrazole-5-carboxamido)-7-(4-(methylamino)butoxy)-1H-benzo[d]imidazol-1-yl)propyl)-2-(1-ethyl-3-methyl-1H-pyrazole-5-carboxamido)-3,4-dihydro-5-oxa-1,2a-diazaacenaphthylene-7-carboxamide] | – | – | 5.96 | 2.82 | 38.85 | –
